# Data as given in PMC5587286, “Direct versus indirect actions of ghrelin on hypothalamic NPY neurons” (PLoS ONE, 2017).
# Experiments:
# [1] = molecular target: growth hormone secretagogue receptor (mouse (endogenous in NPY-GFP neurons)) (UniProt Q99P50)
# [2] = tested on: NPY-GFP neurons in hypothalamic slices; assay type: cell-based, mice
# [3] = tested on: isolated SUR1-/- neurons; assay type: cell-based, mice
# Sequence of growth hormone secretagogue receptor (mouse (endogenous in NPY-GFP neurons)) (Q99P50 whole entry): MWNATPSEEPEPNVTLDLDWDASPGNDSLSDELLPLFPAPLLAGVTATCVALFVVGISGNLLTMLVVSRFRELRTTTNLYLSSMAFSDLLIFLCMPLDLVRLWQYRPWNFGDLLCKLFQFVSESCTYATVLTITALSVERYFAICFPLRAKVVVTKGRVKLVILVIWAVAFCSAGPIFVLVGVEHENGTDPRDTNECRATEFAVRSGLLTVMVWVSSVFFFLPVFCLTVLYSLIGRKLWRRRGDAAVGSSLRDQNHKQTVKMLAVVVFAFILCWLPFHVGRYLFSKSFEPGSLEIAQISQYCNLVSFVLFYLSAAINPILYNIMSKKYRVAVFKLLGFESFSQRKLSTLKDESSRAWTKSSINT
compound,measurement,setting,value
Acylated ghrelin (peptide),"EC50 of the rise of [Ca2+]c (fura-2) in isolated NPY-GFP neurons, from averages of the peak heights at each ghrelin concentration",[1],110 pM
CCCCCCCC(=O)OC[C@H](NC(=O)[C@H](CO)NC(=O)CN)C(=O)N[C@@H](Cc1ccccc1)C(=O)N[C@@H](CC(C)C)C(=O)N[C@@H](CO)C(=O)N1CCC[C@H]1C(=O)N[C@@H](CCC(=O)O)C(=O)N[C@@H](Cc1c[nH]cn1)C(=O)N[C@@H](CCC(N)=O)C(=O)N[C@@H](CCCNC(=N)N)C(=O)N[C@H](C(=O)N[C@@H](CCC(N)=O)C(=O)N[C@@H](CCC(N)=O)C(=O)N[C@@H](CCCNC(=N)N)C(=O)N[C@@H](CCCCN)C(=O)N[C@@H](CCC(=O)O)C(=O)N[C@@H](CO)C(=O)N[C@@H](CCCCN)C(=O)N[C@@H](CCCCN)C(=O)N1CCC[C@H]1C(=O)N1CCC[C@H]1C(=O)N[C@@H](C)C(=O)N[C@@H](CCCCN)C(=O)N[C@@H](CC(C)C)C(=O)N[C@@H](CCC(N)=O)C(=O)N1CCC[C@H]1C(=O)N[C@@H](CCCNC(=N)N)C(=O)O)C(C)C [ghrelin],average IR decrease,[2],-108 ± 60 MΩ
same,ghrelin-induced changes in MP and IR in the presence of TTX,[2],"persistent, albeit diminished"
same,neurons depolarized due to decreases in IR,[2],~ 70%
same,neurons depolarized with increases in IR,[2],7/22
same,average ΔMP (MP +ghrelin minus MP w/o ghrelin),[2]; SD,3.6 ± 1.7 mV
same,effect on [Ca2+]c,[3],reversibly stimulated an increase in [Ca^2+]c in a subset of isolated SUR1^-/- neurons
CC1=NS(=O)(=O)c2cc(Cl)ccc2N1 [diazoxide],stimulation of an increase in [Ca2+]c,"[3]; diazoxide 200 μM, neurons from SUR1-/- mice",not
COc1ccc(Cl)cc1C(=O)NCCc1ccc(S(=O)(=O)NC(=O)NC2CCCCC2)cc1 [glibenclamide],effect on ghrelin action,"[3]; glibenclamide 1 μM, ghrelin 200 pM, neurons from SUR1-/- mice",no significant effect on ghrelin action
"NC1=N[C@H](O)[C@H]2[C@H]3O[C@]4(O)O[C@@H]([C@@H](O)[C@@]2(N1)[C@@H]4O)[C@]3(O)CO [TTX, tetrodotoxin]",effect on ghrelin-induced changes in MP and IR,[2],reduces these ghrelin-induced changes in both MP and IR
